Paper PMC8343220, “The selectivity of α‐adrenoceptor agonists for the human α1A, α1B, and α1D‐adrenoceptors” (Pharmacology Research & Perspectives, 2021)

Assays:
[1] = biological target: T1, human α1D‐adrenoceptor (full length) (Homo sapiens, UniProt P25100); assay: ^3H‐prazosin whole‐cell radioligand binding, CHO‐α1D cells
T1 construct: human α1D‐adrenoceptor (full length) were used; expressed in transfected cells; host or cells: CHO-K1
T1 sequence (P25100 1-572): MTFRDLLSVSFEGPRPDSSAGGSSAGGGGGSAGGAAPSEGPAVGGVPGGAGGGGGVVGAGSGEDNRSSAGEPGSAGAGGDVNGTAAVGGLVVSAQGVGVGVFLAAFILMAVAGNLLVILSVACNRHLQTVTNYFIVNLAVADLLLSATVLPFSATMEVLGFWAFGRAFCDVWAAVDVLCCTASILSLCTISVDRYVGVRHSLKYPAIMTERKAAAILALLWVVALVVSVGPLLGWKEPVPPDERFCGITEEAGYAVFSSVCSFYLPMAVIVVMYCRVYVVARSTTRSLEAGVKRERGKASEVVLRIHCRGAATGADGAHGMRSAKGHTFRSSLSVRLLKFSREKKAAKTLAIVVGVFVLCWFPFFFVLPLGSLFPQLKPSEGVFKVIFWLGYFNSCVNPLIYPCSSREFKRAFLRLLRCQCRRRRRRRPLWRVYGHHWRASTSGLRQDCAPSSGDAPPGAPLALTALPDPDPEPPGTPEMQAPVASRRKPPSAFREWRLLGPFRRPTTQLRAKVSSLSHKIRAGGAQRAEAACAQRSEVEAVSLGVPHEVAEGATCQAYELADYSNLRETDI

[2] = biological target: T2, human α1B‐adrenoceptor (Homo sapiens, UniProt P35368); assay: ERK1/2‐phosphorylation (Surefire Alphascreen), CHO‐α1B cells; assay type: cell-based
T2 construct: expressed in transfected cells; host or cells: CHO-K1
T2 sequence (P35368 1-520): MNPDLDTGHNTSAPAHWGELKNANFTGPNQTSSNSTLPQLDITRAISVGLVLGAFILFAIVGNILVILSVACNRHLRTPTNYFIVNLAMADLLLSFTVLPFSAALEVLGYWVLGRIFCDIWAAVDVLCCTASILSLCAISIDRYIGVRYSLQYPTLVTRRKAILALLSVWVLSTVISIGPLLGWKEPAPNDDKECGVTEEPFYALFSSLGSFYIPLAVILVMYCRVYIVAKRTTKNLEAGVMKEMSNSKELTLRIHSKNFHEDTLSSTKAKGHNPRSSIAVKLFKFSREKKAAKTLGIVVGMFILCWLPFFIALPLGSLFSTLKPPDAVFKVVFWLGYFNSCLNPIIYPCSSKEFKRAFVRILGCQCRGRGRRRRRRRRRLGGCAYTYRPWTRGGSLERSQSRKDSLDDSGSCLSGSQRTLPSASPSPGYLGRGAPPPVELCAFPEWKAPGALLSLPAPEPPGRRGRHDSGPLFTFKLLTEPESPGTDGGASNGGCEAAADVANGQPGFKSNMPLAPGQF

[3] = biological target: T1, human α1D‐adrenoceptor (full length); assay: ^3H‐cAMP accumulation in the presence of 10 μM forskolin, CHO‐α1D cells; assay type: cell-based; settings: CHO‐α1D cells
[4] = biological target: T1, human α1D‐adrenoceptor (full length); assay: Intracellular free calcium mobilization, CHO‐α1D cells; assay type: cell-based
[5] = biological target: T1, human α1D‐adrenoceptor (full length); assay: ERK1/2‐phosphorylation (Surefire Alphascreen), CHO‐α1D cells; assay type: cell-based
[6] = biological target: T3, human α1A‐adrenoceptor (Homo sapiens, UniProt P35348); assay: ERK1/2‐phosphorylation (Surefire Alphascreen), CHO‐α1A cells; assay type: cell-based
T3 construct: expressed in transfected cells; host or cells: CHO-K1
T3 sequence (P35348 1-466): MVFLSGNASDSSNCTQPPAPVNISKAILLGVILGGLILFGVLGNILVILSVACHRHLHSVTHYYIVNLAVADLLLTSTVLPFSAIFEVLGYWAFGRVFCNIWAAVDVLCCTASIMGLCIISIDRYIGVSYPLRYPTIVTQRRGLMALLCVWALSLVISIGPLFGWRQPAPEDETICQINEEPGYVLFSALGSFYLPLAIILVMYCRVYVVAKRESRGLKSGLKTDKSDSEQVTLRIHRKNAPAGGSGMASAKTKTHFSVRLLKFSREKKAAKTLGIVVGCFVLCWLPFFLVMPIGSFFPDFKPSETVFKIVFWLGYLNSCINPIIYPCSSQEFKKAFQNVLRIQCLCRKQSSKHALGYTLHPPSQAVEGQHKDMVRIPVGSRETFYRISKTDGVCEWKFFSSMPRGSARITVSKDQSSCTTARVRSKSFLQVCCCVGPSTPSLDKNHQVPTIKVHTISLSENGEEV

[7] = biological target: T3, human α1A‐adrenoceptor; assay: ^3H‐cAMP accumulation, CHO‐α1A cells; assay type: cell-based; settings: CHO‐α1A cells
[8] = biological target: T3, human α1A‐adrenoceptor; assay: Intracellular free calcium mobilization, CHO‐α1A cells; assay type: cell-based
[9] = biological target: T1, human α1D‐adrenoceptor (full length); assay: ^3H‐cAMP accumulation, CHO‐α1D cells; assay type: cell-based; settings: cAMP accumulation without forskolin
[10] = biological target: T2, human α1B‐adrenoceptor; assay: Intracellular free calcium mobilization, CHO‐α1B cells; assay type: cell-based
[11] = tested on: parental CHO cell line without any transfected receptors; assay: Forskolin‐stimulated cAMP accumulation, parent CHO cells without transfected receptors; assay type: cell-based, Chinese hamster
[12] = biological target: T3, human α1A‐adrenoceptor; assay: ^3H‐prazosin whole‐cell radioligand binding, CHO‐α1A cells
[13] = biological target: T3, human α1A‐adrenoceptor; assay: ^3H‐cAMP accumulation in the presence of 10 μM forskolin, CHO‐α1A cells; assay type: cell-based; settings: CHO‐α1A cells
[14] = biological target: T2, human α1B‐adrenoceptor; assay: ^3H‐prazosin whole‐cell radioligand binding, CHO‐α1B cells
[15] = tested on: parental CHO cell line without any transfected receptors; assay: ERK1/2‐phosphorylation, parent CHO cells without transfected receptors; assay type: cell-based, Chinese hamster
[16] = tested on: parental CHO cell line without any transfected receptors; assay: Intracellular calcium mobilization, parent CHO cells without transfected receptors; assay type: cell-based, Chinese hamster
[17] = biological target: T2, human α1B‐adrenoceptor; assay: ^3H‐cAMP accumulation, CHO‐α1B cells; assay type: cell-based; settings: CHO‐α1B cells
[18] = biological target: T2, human α1B‐adrenoceptor; assay: ^3H‐cAMP accumulation in the presence of 10 μM forskolin, CHO‐α1B cells; assay type: cell-based; settings: CHO‐α1B cells
[19] = tested on: parental CHO cell line without any transfected receptors; assay: ^3H‐cAMP accumulation, parent CHO cells without transfected receptors; assay type: cell-based, Chinese hamster
[20] = read-out: ERK1/2‐phosphorylation Log EC50 (converted)
[21] = fold increase of the forskolin response
[22] = read-out: Intracellular calcium release Log EC50 (converted)

Cc1cccc([C@H](C)c2cnc[nH]2)c1C [Dexmedetomidine]
Affinity selectivity ratio α1A vs α1D [1]: 1.3 fold
Affinity selectivity ratio α1B vs α1D [1]: 9.3 fold
Kd ([1]; 3H‐prazosin binding Log KD): 1230 nM
Kd ([1]; Log KD α1D, ^3H‐prazosin whole cell binding): 1230 nM
ERK1/2‐phosphorylation % PDBu [2]: 55.4 ± 7.4%
EC50 [2, 20]: 132 nM
cAMP (in presence of forskolin) Fold increase [3, 21]: No response
cAMP (in presence of forskolin) Log EC50 ([3]; in presence of forskolin, log values given negative): No response
Intracellular calcium release % Ionomycin at 100 µM [4]: 13.1 ± 1.7%
ERK1/2‐phosphorylation % PDBu at 100 µM [5]: 19.7 ± 3.3%
ERK1/2‐phosphorylation % PDBu [6]: 81.7 ± 4.4%
EC50 [6, 20]: 13.8 nM
EC50 ([7]; 5 h, read-out: cAMP accumulation Log EC50 (converted)): 513 nM
cAMP accumulation % forskolin ([7]; % of 10 µM forskolin response): 57.6 ± 5.7%
Intracellular calcium release % ionomycin [8]: 57.3 ± 2.8%
Log efficacy ratio KD /EC50 [8]: 1.91
EC50 [8, 22]: 16.2 nM
cAMP Log EC50 [9]: No response
Intracellular calcium release % ionomycin [10]: 43.6 ± 2.1%
Log efficacy ratio KD /EC50 [10]: 2.29
EC50 [10, 22]: 46.8 nM
cAMP accumulation (in presence of forskolin) % forskolin-stim cAMP at 100μM ([11]; CHO cells without transfected receptors, response at 100μM only, EC50 not obtainable, % of forskolin-stimulated cAMP): 84.4 ± 4.7%
Affinity selectivity ratio α1A vs α1B [12]: 6.9 fold
Kd ([12]; Log KD α1A, ^3H‐prazosin whole cell binding): 1320 nM
EC50 ([13]; 10 μM forskolin, read-out: cAMP accumulation (in presence of forskolin) Log EC50 (converted)): 85.1 nM
cAMP accumulation (in presence of forskolin) Fold increase [13, 21]: 2.13 ± 0.09 fold
Kd ([14]; Log KD α1B, ^3H‐prazosin whole cell binding): 9.12 µM
Kd ([14]; Log KD, ^3H‐prazosin binding): 9.12 µM
Emax at 100 µM ([15]; Cricetulus griseus, CHO, read-out: ERK1/2-phosphorylation % PDBu at 100μM): 5.8 ± 2.2%
Emax ([16]; Cricetulus griseus, CHO cells without transfected receptors, response at maximum concentration used (c2), as % of ionomycin (10μM) response, mean ± s.e.m., read-out: Intracellular calcium release % ionomycin): 6.3 ± 4.8%
cAMP accumulation % forskolin ([17]; % forskolin maximum response): 3.7 ± 0.6%
EC50 ([17]; read-out: cAMP accumulation Log EC50 (converted)): 89.1 nM
cAMP accumulation (in presence of forskolin) Fold increase [18, 21]: 1.60 ± 0.07 fold
EC50 ([18]; in presence of forskolin, read-out: cAMP accumulation (in presence of forskolin) Log EC50 (converted)): 33.1 nM

CCN(CC)C(=O)N[C@H]1C=C2c3cccc4[nH]cc(c34)C[C@H]2N(C)C1 [Lisuride]
cAMP accumulation (in presence of forskolin) % forskolin-stim cAMP at 10μM [11]: 85.2 ± 5.0%
ERK1/2‐phosphorylation response in parent CHO cells [15]: stimulated ERK1/2‐phosphorylation responses
Emax ([15]; Cricetulus griseus, CHO, read-out: ERK1/2-phosphorylation % PDBu): 41 ± 6.4%
Intracellular calcium release % ionomycin [16]: No response
cAMP accumulation % forskolin [19]: No response

CC(N)C(O)c1ccc(O)c(O)c1 (stereo not drawn) [α-methylnorepinephrine]
cAMP accumulation (in presence of forskolin) % forskolin-stim cAMP [11]: No response
cAMP accumulation (in presence of forskolin) Log EC50 [11]: No response
ERK1/2-phosphorylation % PDBu [15]: No response
ERK1/2-phosphorylation Log EC50 [15]: No response
Intracellular calcium release % ionomycin [16]: No response
cAMP accumulation % forskolin [19]: No response
